From patent US9775351B2, “Ternary fungicidal and pesticidal mixtures” (BAYER CROPSCIENCE AG, priority 2012, dated 2017) come the findings set out here.

In the assay the test system is Rhizoctonia solani. The assay is described as follows: Rhizoctonia test (cotton)/seed treatment. The format is in vivo. The settings on record: greenhouse, 7 days at 20° C. Here is the method: Rhizoctonia Test (Cotton)/Seed Treatment
The test is performed under greenhouse conditions.
Commercially available disease control agents, active compounds solved in N-methyl-2-pyrrolidon, or combinations thereof were diluted with water to the desired dosages. Cotton seeds were treated with this preparations and sown in 6*6 cm pots containing 4 cm of a 1:1 mix of steamed field soil and sand, mixed with a perlite-culture of Rhizoctonia solani.
Pots were incubated in the greenhouse for 7 days at 20° C.
Assessment consisted of counting of emerged seedlings and diseased plants. 0% means an efficacy which corresponds to that of the untreated control, while an efficacy of 100% means that all seedlings have emerged and are healthy.

On to `CC1CC(C)(C)c2cccc(NC(=O)c3cn(C)nc3C(F)F)c21` (stereo not drawn) [(I-1), 3-(difluoromethyl)-1-methyl-N-(1,1,3-trimethyl-2,3-dihydro-1H-inden-4-yl)-1H-pyrazole-4-carboxamide], for which, for the setting “application rate 10 g a.i./dt”, the Efficacy in % came out at 41%.

As for `CN/C(=N\[N+](=O)[O-])NCc1cnc(Cl)s1` [clothianidin], the Efficacy in % (application rate 12 g a.i./dt) came out at 24%.

For `COCC(=O)N(c1c(C)cccc1C)C(C)C(=O)OC` (stereo not drawn) [metalaxyl], the Efficacy in % (application rate 1 g a.i./dt) turned out to be 12%.
